From patent publication US12256735B2, “Insecticidal combinations” (UPL LTD, priority 2018, dated 2025)

Key:
[1] = tested on: Lucinodes arbonalis; assay: Trial of efficacy on Lucinodes arbonalis in Brinjal; assay type: in vivo
Method: Trials were conducted to test the efficacy of the combination of Chlorantraniliprole+Bifenthrin+Bifenazate on Lucinodes arbonalis in Brinjal: […]

[2] = tested on: mites in Brinjal; assay: Trial of efficacy on mites in Brinjal; assay type: in vivo
Method: Trials were conducted to test the efficacy of the combination of Chlorantraniliprole+Bifenthrin+Bifenazate on mites in Brinjal: […]

Cc1c(COC(=O)[C@@H]2[C@H](/C=C(\Cl)C(F)(F)F)C2(C)C)cccc1-c1ccccc1 (racemic) [Bifenthrin]
% mortality 3 DAA ([1]; dose 40 gm. ai/ha): 55% | % mortality 7 DAA ([1]; dose 40 gm. ai/ha): 65% | % mortality 10 DAA ([1]; dose 40 gm. ai/ha): 53% | % mortality 14 DAA ([1]; dose 40 gm. ai/ha): 41% | % mortality 3 DAA ([2]; dose 40 gm. ai/ha): 75% | % mortality 7 DAA ([2]; dose 40 gm. ai/ha): 80% | % mortality 10 DAA ([2]; dose 40 gm. ai/ha): 75% | % mortality 14 DAA ([2]; dose 40 gm. ai/ha): 65%

COc1ccc(-c2ccccc2)cc1NNC(=O)OC(C)C [Bifenazate]
% mortality 3 DAA ([1]; dose 150 gm. ai/ha): 9.9% | % mortality 7 DAA ([1]; dose 150 gm. ai/ha): 12% | % mortality 10 DAA ([1]; dose 150 gm. ai/ha): 10.9% | % mortality 14 DAA ([1]; dose 150 gm. ai/ha): 7.9% | % mortality 3 DAA ([2]; dose 150 gm. ai/ha): 65% | % mortality 7 DAA ([2]; dose 150 gm. ai/ha): 95.1% | % mortality 10 DAA ([2]; dose 150 gm. ai/ha): 85% | % mortality 14 DAA ([2]; dose 150 gm. ai/ha): 75%

CNC(=O)c1cc(Cl)cc(C)c1NC(=O)c1cc(Br)nn1-c1ncccc1Cl [Chlorantraniliprole]
% mortality 3 DAA ([1]; dose 30 gm. ai/ha): 80% | % mortality 7 DAA ([1]; dose 30 gm. ai/ha): 90.1% | % mortality 10 DAA ([1]; dose 30 gm. ai/ha): 89.1% | % mortality 14 DAA ([1]; dose 30 gm. ai/ha): 79% | % mortality 3 DAA ([2]; dose 30 gm. ai/ha): 9.9% | % mortality 7 DAA ([2]; dose 30 gm. ai/ha): 8.9% | % mortality 10 DAA ([2]; dose 30 gm. ai/ha): 7.9% | % mortality 14 DAA ([2]; dose 30 gm. ai/ha): 10.9%
